Test: Absorbance at photostationary state (PSS) under simulated sunlight or 365 nm light
Type: physicochemical
Set-up: λ max: unit not given here
Details: for Absorbance at PSS, 365 nm: 365 nm light source; for Absorbance at PSS, 365 nm / Absorbance at PSS, full / Absorbance at PSS, +UV / λ max: 2.0×10^−5 M in triglyme; for sensitivity index: ratio of PSS under 365 nm light to PSS under full spectrum light (without UV blocking film); for Absorbance at PSS, full: simulated sunlight (QSUN solar simulator), no UV blocking film; for Absorbance at PSS, +UV: simulated sunlight with UV blocking film (cutoff 370 nm); for λ max: wavelength of maximum absorbance in the visible range, ring-closed isoform
Procedure: Absorbance at a PSS for selected compounds was measured at 2.0×10^−5 M in triglyme in the absence (full) or presence (+UV) of a UV blocking film with a UV cutoff wavelength of 370 nm (10% transmission at 370 nm), using simulated sunlight (QSUN solar simulator) as a light source, or a 365 nm light source; these PSS are reported in Tables 1.5. […] “Switch” refers to the ability (yes or no) of the compound to be reversibly converted under photochromic and electrochromic conditions between a ring-open isomer and ring-closed isomer.
A sensitivity index (SI) is a ratio of the PSS under 365 nm light to the PSS under full spectrum light (without UV blocking film). SI is an indicator of the sensitivity of the compound to the composition of the incident light (a change in the ratio of UV and visible components)—photochemical ring-opening is induced by a portion of the visible light spectrum.
Photostationary State (PSS) UV/Vis spectra are obtained using an OceanOptics™ Spectrophotometer until absorption in the visible region of the spectrum stabilizes. A 2×10^−5M solution of compound in solvent is prepared, and photofaded using visible light until absorption in the visible region of the spectrum stabilizes. The sample is then irradiated with simulated sunlight (QSUN SS-150 Solar Simulator with xenon arc lamp) until the absorption spectrum stabilizes. To obtain PSS in the presence of a UV blocking film, a second sample is prepared and irradiated as described, with a UV blocking film inserted in the light path when irradiating.

Row | Compound | Absorbance at PSS, 365 nm | sensitivity index | Absorbance at PSS, full | Absorbance at PSS, +UV | λ max
1 | CC(C)Oc1ccc(-c2cc(C3=C(c4cc(-c5ccc(OC(C)C)cc5)sc4-c4ccc(OC(C)C)cc4)C(F)(F)C(F)(F)C3(F)F)c(-c3ccc(OC(C)C)cc3)s2)cc1 [S092, 3,3′-(perfluorocyclopent-1-ene-1,2-diyl)bis(2,5-bis(4-isopropoxyphenyl)thiophene)] | 0.307 | 1.90 | 0.162 | 0.093 | 627
2 | COc1ccc(-c2sc(-c3ccc(C#N)cc3)cc2C2=C(c3cc(-c4ccc(C#N)cc4)sc3-c3ccc(OC)cc3)C(F)(F)C(F)(F)C2(F)F)cc1 [S085] | 0.187 | 1.16 | 0.161 | 0.08 | 640
3 | CCOCCOCCOCCOc1ccc2c(C3=C(c4c(-c5ccc(C(C)(C)C)cc5)oc5cc(OCCOCCOCCOCC)ccc45)C(F)(F)C(F)(F)C3(F)F)c(-c3ccc(C(C)(C)C)cc3)oc2c1 [S161, 3,3′-(perfluorocyclopent-1-ene-1,2-diyl)bis(2-(4-(tert-butyl)phenyl)-6-(2-(2-(2-ethoxyethoxy)ethoxy)ethoxy)benzofuran)] | 0.455 | 3.73 | 0.122 | 0.06 | 511
4 | CC(C)(C)c1ccc(-c2cc(C3=C(c4cc(-c5ccc(C(C)(C)C)s5)sc4-c4ccc(N5CCOCC5)cc4)C(F)(F)C(F)(F)C3(F)F)c(-c3ccc(N4CCOCC4)cc3)s2)s1 [S112, 4,4′-((4,4″-(perfluorocyclopent-1-ene-1,2-diyl)bis(5′-(tert-butyl)-[2,2′-bithiophene]-5,4-diyl))bis(4,1-phenylene))dimorpholine] | 0.318 | 1.14 | 0.278 | 0.246 | 663
5 | COc1cc2oc(-c3ccc(C(C)(C)C)cc3)c(C3=C(c4c(-c5ccc(C(C)(C)C)cc5)oc5cc(OC)c(OC)cc45)C(F)(F)C(F)(F)C3(F)F)c2cc1OC [S164, 3,3′-(perfluorocyclopent-1-ene-1,2-diyl)bis(2-(4-(tert-butyl)phenyl)-5,6-dimethoxybenzofuran)] | 0.546 | 2.32 | 0.235 | 0.134 | 554
6 | COc1ccc(-c2sc(-c3ccc(OCCOc4ccc(N(c5ccc(Cl)cc5)c5ccc(Cl)cc5)cc4)cc3)cc2C2=C(c3cc(-c4ccc(OCCOc5ccc(N(c6ccc(Cl)cc6)c6ccc(Cl)cc6)cc5)cc4)sc3-c3ccc(OC)cc3)C(F)(F)C(F)(F)C2(F)F)cc1 [S090, 4,4′-(((((4,4′-(perfluorocyclopent-1-ene-1,2-diyl)bis(5-(4-methoxyphenyl)thiophene-4,2-diyl))bis(4,1-phenylene))bis(oxy))bis(ethane-2,1-diyl))bis(oxy))bis(N,N-bis(4-chlorophenyl)aniline)] | 0.183 | 1.71 | 0.107 | 0.058 | 624
7 | FC1(F)C(c2cc(-c3ccc(Cl)cc3)sc2-c2ccc(Cl)cc2)=C(c2cc(-c3ccc(Cl)cc3)sc2-c2ccc(Cl)cc2)C(F)(F)C1(F)F [S056, 3,3′-(perfluorocyclopent-1-ene-1,2-diyl)bis(2,5-bis(4-chlorophenyl)thiophene)] | 0.194 | 2.73 | 0.071 | 0.026 | 610
8 | N#Cc1ccc(-c2ccc(-c3cc(C4=C(c5cc(-c6ccc(-c7ccc(C#N)s7)s6)sc5-c5cccs5)C(F)(F)C(F)(F)C4(F)F)c(-c4cccs4)s3)s2)s1 [S037, 4″,4″″″-(perfluorocyclopent-1-ene-1,2-diyl)bis(([2,2′:5′,2″:5″,2″′-quaterthiophene]-5-carbonitrile))] | 0.442 | 1.18 | 0.375 | 0.355 | 680
9 | CC(=O)c1ccc(-c2cc(C3=C(c4cc(-c5ccccc5)sc4-c4ccc(C(C)(C)C)cc4)C(F)(F)C(F)(F)C3(F)F)c(-c3ccc(C(C)(C)C)cc3)s2)cc1 [S065, 1-(4-(5-(4-tert-butylphenyl)-4-(2-(2-(4-tert-butylphenyl)-5-phenylthiophen-3-yl)-3,3,4,4,5,5-hexafluorocyclopent-1-enyl)thiophen-2-yl)phenyl)ethanone] | 0.281 | 2.04 | 0.138 | 0.054 | 625
10 | N#Cc1ccc(-c2cc(C3=C(c4cc(-c5ccc(C#N)cc5)sc4-c4ccc(C#N)cc4)C(F)(F)C(F)(F)C3(F)F)c(-c3ccc(C#N)cc3)s2)cc1 [S074, 3,3′-(perfluorocyclopent-1-ene-1,2-diyl)bis(2,5-bis(4-cyanophenyl)thiophene)] | 0.189 | 2.74 | 0.069 | 0.024 | 620
11 | CC(C)(C)c1ccc(-c2cc(C3=C(c4cc(-c5sc(C(C)(C)C)cc5C(=O)O)sc4-c4ccc(C(=O)O)s4)C(F)(F)C(F)(F)C3(F)F)c(-c3ccc(C(=O)O)s3)s2)s1 [S124] | 0.344 | 1.38 | 0.249 | 0.225 | 649
12 | Cc1ccc(-c2oc3ccccc3c2C2=C(c3c(-c4ccc(C)s4)oc4ccccc34)C(F)(F)C(F)(F)C2(F)F)s1 [S137, 3,3′-(perfluorocyclopent-1-ene-1,2-diyl)bis(2-(5-methylthiophen-2-yl)benzofuran)] | 0.15 | 4.55 | 0.033 | 0.016 | 497
13 | Oc1ccc(-c2cc(C3=C(c4cc(-c5ccc(O)cc5)sc4-c4ccc(O)cc4)C(F)(F)C(F)(F)C3(F)F)c(-c3ccc(O)cc3)s2)cc1 [S084, 3,3′-(perfluorocyclopent-1-ene-1,2-diyl)bis(2,5-bis(4-hydroxyphenyl)thiophene)] | 0.23 | 2.56 | 0.09 | 0.051 | 625
14 | Cc1cc(-c2sc(-c3sc(C)c(C)c3C)cc2C2=C(c3cc(-c4sc(C)c(C)c4C)sc3-c3cc(C)c(C)s3)C(F)(F)C(F)(F)C2(F)F)sc1C [S148, 4′,4″″-(perfluorocyclopent-1-ene-1,2-diyl)bis(3,4,4″,5,5″-pentamethyl-2,2′:5′,2″-terthiophene)] | 0.244 | 1.63 | 0.15 | 0.092 | 650
15 | COc1ccc(-c2cc(C3=C(c4cc(-c5ccc(OC)cc5)sc4-c4ccc(C#N)cc4)C(F)(F)C(F)(F)C3(F)F)c(-c3ccc(C#N)cc3)s2)cc1 [S086, 4,4′-(3,3′-(perfluorocyclopent-1-ene-1,2-diyl)bis(5-(4-methoxyphenyl)thiophene-3,2-diyl))dibenzonitrile] | 0.231 | 2.01 | 0.115 | 0.071 | 610
16 | CC(C)(C)c1ccc(-c2cc(C3=C(c4cc(-c5ccc(C(C)(C)C)s5)sc4-c4ccc(OCCCCC(=O)O)cc4)C(F)(F)C(F)(F)C3(F)F)c(-c3ccc(OCCCCC(=O)O)cc3)s2)s1 [S141, 5,5′-(4,4′-(4,4′-(perfluorocyclopent-1-ene-1,2-diyl)bis(5′-tert-butyl-2,2′-bithiophene-5,4-diyl))bis(4,1-phenylene)bis(oxy))dipentanoic acid] | 0.377 | – | 0.282 | 0.183 | –
17 | FC1(F)C(c2cc(-c3ccc(/C=C/c4ccccc4)s3)sc2-c2cccs2)=C(c2cc(-c3ccc(/C=C/c4ccccc4)s3)sc2-c2cccs2)C(F)(F)C1(F)F [S038, (E)-4′,4″″-(perfluorocyclopent-1-ene-1,2-diyl)bis(5-((E)-styryl)-2,2′:5′,2″-terthiophene)] | 0.642 | 1.41 | 0.456 | 0.431 | 690
18 | CC(C)(C)c1ccc(-c2cc(C3=C(c4cc(-c5ccc(C(C)(C)C)s5)sc4-c4ccc(OCCCCC#N)cc4)C(F)(F)C(F)(F)C3(F)F)c(-c3ccc(OCCCCC#N)cc3)s2)s1 [S139, 5,5′-(((4,4″-(perfluorocyclopent-1-ene-1,2-diyl)bis(5′-(tert-butyl)-[2″,2″′-bithiophene]-5″,4-diyl))bis(4,1phenylene))bis(oxy))dipentanenitrile] | 0.403 | – | 0.322 | 0.216 | –

From patent US10072023B2, “Diarylethene compounds and uses thereof” (SWITCH MATERIALS, INC., priority 2011, dated 2018)
